Source: patent publication US20190194179A1, “ANTIBIOTIC COMPOUNDS” (DISCUVA LTD., priority 2016, published 2019)
Read-outs that look alike come from different tables or passages of the source.

Key:
Format in all cases: cell-based
Neisseria gonorrhoeae = assay: EC50 determination: plate-based broth growth assay (absorbance at 600 nm) of Neisseria gonorrhoeae; conditions: absorbance 600 nm after 20 hours at 37° C./5% CO2, read-out: IC50 (Inhibitory concentration) against Neisseria gonorrhoeae
Summary of the method: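 Mid-log culture diluted to ~10^5 cells/ml as inoculum and grown 20 hours at 37° C./5% CO2 across a 10-point compound dilution series. Growth read as absorbance at 600 nm; EC50 taken from transformed data as the concentration giving 50% response relative to no-compound controls.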

Staphylococcus aureus = assay: EC50 determination: broth growth assay of Staphylococcus aureus (Isosensitest broth); conditions: Table 1, panel of bacteria, 37° C., read-out: IC50 concentration against Staphylococcus aureus
Protocol: (§1) Actively growing Neisseria gonorrhoeae on GC agar (based on; Spence et. al. (2008): Curr. Protoc. Microbiol. 8:4A.1.1-4A.1.26) plates are harvested and transferred to GC broth (based on; Spence et al (2008): Curr. Protoc. Microbiol. 8:4A.1.1-4A.1.26) to generate a liquid stock. This culture is allowed to establish and grow to mid-log phase (at 37° C./5% CO2), finally this culture is diluted (˜10^5 cells/ml) to generate a seed inoculum to establish plate-based broth assays. EC50 values were determined by assaying growth (absorbance read at 600 nm, after 20 hours at 37° C./5% CO2) of Neisseria gonorrhoeae across a 10-point dilution series of the test compound. The EC50 value is determined from transformed data to identify the concentration of compound giving a 50% response relative to control samples (no compound).
(§2) EC50 determination for Staphylococcus aureus and Enterococcus Spp. followed a similar procedure but were conducted using Isosensitest broth (Oxoid) with incubations at 37° C. in atmospheric air. Final absorbance reads were conducted during the late exponential growth phase.

Enterococcus Spp. = assay: EC50 determination: broth growth assay of Enterococcus Spp. (Isosensitest broth); conditions: Table 1, panel of bacteria, 37° C.
Protocol: as §1, §2

[1] = Enterococcus faecalis, read-out: IC50 concentration against Entercoccus faecalis
[2] = Enterococcus faecium, read-out: IC50 concentration against Enterococcus faecium

| IC50 (Neisseria gonorrhoeae) | IC50 (Staphylococcus aureus) | Compound | IC50 (Enterococcus Spp.; [1]) | IC50 (Enterococcus Spp.; [2]) |
| --- | --- | --- | --- | --- |
| ≤ 1 µM | ≤ 10 µM | FC(F)(F)c1cc2oc(Nc3nc4cc(Cl)ccc4o3)nc2cn1 [Example 165, N-(5-Chlorobenzo[d]oxazol-2-yl)-6-(trifluoromethyl) oxazolo[4,5-c]pyridin-2-amine] | ≤ 10 µM | ≤ 10 µM |
| ≤ 1 µM | ≤ 10 µM | FC(F)(F)c1cc2[nH]c(Nc3nc4ccccc4o3)nc2cn1 [Example 170, N-(6-(Trifluoromethyl)-1H-imidazo[4,5-c]pyridin-2-yl)benzo[d]oxazol-2-amine] | ≤ 10 µM | ≤ 10 µM |
